Source: a melting point compilation (Tetko et al.; mined from patent text by program, amines drawn as free bases though some values may be those of a salt)

Q: With `FC(F)(F)c1cc(C(F)(F)F)c2[nH]c(N3CCN(c4ncccc4Br)CC3)nc2c1` as the compound, how does the melting point read?
A: 166 °C

Q: For `CCc1[nH]n(C2CCCC2)c2nc(Cc3cccc(OC)c3)nc(=O)c1-2`, which melting point is on record?
A: 148 to 150 °C

Q: For `CC(=O)N1CCC(C(=O)N2CC[C@@H](N(C)C(=O)c3ccc(Br)cn3)[C@H](c3ccc(Cl)c(Cl)c3)C2)CC1`, which melting point is on record?
A: 128 to 130 °C

Q: With `CCN(Cc1ccccc1Oc1ccccc1)c1ccc(C(=O)O)cn1` as the compound, how does the melting point read?
A: 170 to 172 °C

Q: For `O=C(Nc1c(Cl)cncc1Cl)c1cc(OC2CCCC2)c(OC(F)F)cn1`, which melting point is on record?
A: 131 to 132 °C

Q: With `CS(=O)(=O)c1ccc(C2=C(c3ccc(F)cc3)CC(C(F)(F)F)(C(F)(F)F)C2)cc1` as the compound, how does the melting point read?
A: 138 °C

Q: Which melting point does the source give for `CC(C(=O)NO)c1ccc(C(=O)c2cccs2)cc1` (configuration not stated) here?
A: 144 °C

Q: For `CC(C)(C)c1cc(SCCC(=O)NC2C3CC4CC(C3)CC2C4)cc(C(C)(C)C)c1O` (configuration not stated), which melting point is on record?
A: 156 °C

Q: For `COc1ccc(C(C)(C)C)cc1S(N)(=O)=O`, which melting point is on record?
A: 156 to 158 °C

Q: For `COc1oc(=O)n(-c2ccccc2)c1C`, which melting point is on record?
A: 81 to 83.5 °C

Q: For `Cc1oc(-c2ccccc2)nc1COc1ccc(C=CC=O)cc1C(F)(F)F`, which melting point is on record?
A: 138 to 139 °C

Q: Which melting point does the source give for `CCOC(=O)NN=Cc1ccnc2ccccc12` here?
A: 161 °C

Q: Which melting point does the source give for `COC(=O)CN1CCC[C@H](OCc2cc(C(F)(F)F)cc(C(F)(F)F)c2)[C@@H]1c1ccccc1` (relative stereo) here?
A: 60 to 70 °C

Q: With `Nc1c(Cl)cc(C(O)CNC2CC2)cc1C(F)(F)F` (configuration not stated) as the compound, how does the melting point read?
A: 138 to 139 °C

Q: Which melting point does the source give for `c1ccc(Sc2cc3cc4cc5ccccc5cc4cc3cc2Sc2ccccc2)cc1` here?
A: > 260 °C

Q: Which melting point does the source give for `Cc1nc2c(Cl)c(NC(=O)Cc3ccc(Cl)cc3Cl)ccc2s1` here?
A: 257 to 258 °C

Q: With `COc1ccc(C(=O)C2C(=O)c3cccc(NC(=O)Oc4ccccc4)c3C2=O)cc1` (configuration not stated) as the compound, how does the melting point read?
A: 256 to 258 °C

Q: For `Nc1ccc(C2CCN(C(=O)C(F)(F)F)CC2)cc1`, which melting point is on record?
A: 111 to 112 °C

Q: Which melting point does the source give for `CC(C)C(=O)O[C@H]1[C@H](C)OC(=O)[C@@H](NC(=O)OC(C)(C)C)COC(=O)[C@@H]1Cc1ccc(F)cc1` here?
A: 58 to 66 °C

Q: With `CCCCNC(=O)Cc1ccccc1` as the compound, how does the melting point read?
A: 56 to 57 °C

Q: For `O=C(O)c1ccc2c(c1)CCc1ccc(C(=O)O)cc1S2(=O)=O`, which melting point is on record?
A: 350 to 352 °C

Q: For `CCCCCCCNC(=O)N(CCC)c1cccc(-c2ccc(CCC(=O)O)cc2)c1`, which melting point is on record?
A: 79 °C

Q: Which melting point does the source give for `O=C1c2ccc(OC(c3ccccc3)c3ccccc3)cc2OCC1Cc1cccnc1` (configuration not stated) here?
A: 45 °C

Q: With `Cc1oc(-c2cccs2)nc1COc1ccc(CCCn2ccnc2)cc1` as the compound, how does the melting point read?
A: 102 to 103 °C

Q: With `CCCCCCCCCCOc1ccc(C(=O)O)o1` as the compound, how does the melting point read?
A: 124 to 126 °C

Q: With `CCN1C(=O)C(C(=O)Nc2cccc(C(=O)Nc3ccc(Br)cc3)c2)c2cc(C(=O)c3ccccc3)ccc21` (configuration not stated) as the compound, how does the melting point read?
A: 139 to 142 °C

Q: Which melting point does the source give for `COc1ccc(-c2cnc3[nH]c4ccccc4c3c2)cc1` here?
A: > 220 °C

Q: For `NC(CSCC(O)CN1CCOCC1)C(=O)O` (configuration not stated), which melting point is on record?
A: 200 °C

Q: Which melting point does the source give for `O=c1ccn(-c2cccc(C(F)(F)F)c2)nc1-c1nnnn1-c1ccccc1` here?
A: 172 to 173 °C

Q: With `O=C1COC(c2ccccc2)(c2ccccc2)CCN1Cc1ccccc1` as the compound, how does the melting point read?
A: 185 to 186 °C

Q: With `Cc1nc(Nc2ccccc2)sc1-c1ccncc1` as the compound, how does the melting point read?
A: 168 to 170 °C

Q: With `CCOc1cc(COc2cc(CCC(=O)O)n(-c3ccccc3)n2)cc(COc2ccc(Cl)cc2Cl)c1` as the compound, how does the melting point read?
A: 152 °C

Q: Which melting point does the source give for `COc1ccc(-c2cc(-c3cccc(Br)n3)nc(-c3cccc(Br)n3)c2)cc1` here?
A: 205 °C

Q: With `CCOc1ccc(-c2ccc3c(c2)C=C(C(=O)Nc2ccc(CN(C)C4CCC5(CC4)OCCO5)cc2)CCS3(=O)=O)cc1` as the compound, how does the melting point read?
A: 220 to 223 °C

Q: Which melting point does the source give for `CC(=O)C1CCC2C3CCC4=CC(=O)C=CC4(C)C3=CCC12C` (configuration not stated) here?
A: 161 to 163 °C

Q: For `Cc1nc2c(OCc3ccccc3)cccn2c1CC#N`, which melting point is on record?
A: 163 to 166 °C

Q: For `CC(C)(C)OC(=O)NC1COCCCC=CC2CC2(C(=O)NS(=O)(=O)C2CC2)NC(=O)C2CC(OC(=O)c3ccccc3)CN2C1=O` (configuration not stated), which melting point is on record?
A: 135 to 137 °C
